Data taken from patent US12486255B2, “Modulators of RAS GTPase” (Tosk, Inc., priority 2018, dated 2025).

Assays:
[1] = test system: SW480 cells; test: Cytotoxicity assay, CellTiter-Glo 2.0, SW480 cells; type: cell-based; settings: SW480, human colon cancer cell line expressing kRAS G12V; 48 hours
Description: FIG. 2, panels A-B, illustrate the cytotoxicity of Structure 2 and Structure 3 on SW480 cells. The cytotoxicity of compounds of interest was tested against the human colon cancer cell line SW480 as described in the experimental section. SW480 cells express a mutant G12V kRAS. Compounds were incubated with cells for 48 hours and the assay was developed using Cell Titer Glo 2.0. IC50 vales were determined using GraphPad Prism 4.
(§1) Compounds were assayed for inhibition of cell proliferation and killing cancer cells. Cytotoxicity assays were conducted according to the following general procedure. SW480, SW48, SW900, SW620 were all maintained in Leibowitz L15 media supplemented with 10% fetal bovine serum and 1% PenStrep and grown in a 37° C. incubator without supplemental CO2. Capan-1 cells were maintained in Iscove's Modified Dulbecco's Medium (ATCC 30-2005) containing 20% fetal bovine serum and 1% PenStrep and grown in a 37° C. incubator containing 5% CO2.
(§2) For dose-response assays, SW480 cells were plated into 96 well plates (1 million/plate, ˜10,000/well, 250 μL media/well). Cells were allowed to settle and adhere to plate bottom overnight Compounds were placed in 500 μL media and mixed. Then 250 μL compounds+media was placed in an intermediate plate in row A. Rows B through H were filled with 125 μL media. […] Luminescence was read with FLx800 (BioTek Instruments).

[2] = test system: SW900 cells; test: Cytotoxicity assay, CellTiter-Glo 2.0, SW900 cells; type: cell-based; settings: SW900, human lung cancer cell expressing kRAS G12V; 48 hours
Description: FIG. 4, panels A-B, illustrates the cytotoxicity of Structure 2 and Structure 3 on SW900 cells. The cytotoxicity of compounds of interest were tested against the human lung cancer cell line SW900 as described in the experimental section. SW900 cells express a G12V mutant kRAS. Compounds were incubated with cells for 48 hours and the assay was developed using Cell Titer Glo 2.0. IC50 vales were determined using GraphPad Prism 4.
as §1, §2

[3] = test system: cardiomyocyte cell line H9C2; test: Cytotoxicity assay, H9C2 cells; type: cell-based; settings: rat cardiomyocyte cell line H9C2
[4] = test system: phosphorylated ERK 1/2 (T202/Y204); test: Phosphorylated ERK bioassay (Western blot, SW480 cells); type: cell-based, human; settings: 3 μM, 24 hours, in the presence of serum
Description: As described herein, the main downstream target for kRAS is ERK (Samatar et al., Targeting RAS-ERK signaling in cancer: promises and challenges. Nat Rev Drug Discov. 2014; 13:928-42). kRAS activates ERK leading to phosphorylated ERK. A compound that suppresses kRAS activity is expected to lower phosphorylated ERK.
Test articles abrogate the expression of phosphorylated ERK (T202/Y204) SW480 cells were subjected to test article incubation at 3 μM for 24 hours in the presence of serum to mimic natural growth environment. Cells were extracted and total protein of samples normalized through BCA assay. Processed extracts were subjected to SDS-PAGE/Western blot and blotted for phosphorylated ERK 1/2 (T202/Y204); ERK 1/2; and α-Tubulin.
The compound U0126 in FIG. 8 is a MEK inhibitor which is known to suppress phosphorylation of ERK. The compound was tested along with the test articles to serve as a positive control.

[5] = Pharmacokinetic study in mice; type: in vivo; settings: ip, 3 mg/kg, CD-1 mice, 3 mg/kg
Description: Pharmacokinetic studies were carried out using 10 weeks old CD-1 mice. Structure 2 and Structure 3 were injected ip, 3 mg/kg and 10 mg/kg, respectively, at 8 time points (0, 0.25, 0.5, 1, 2, 4, 8 and 24 hours post-dose). Blood was collected from 3 animals/time point and concentrations of Structure 2 in plasma determined using LC/MS.

[6] = Multi-day safety study in mice; type: in vivo; settings: female CD1 mice, 2 mg/kg ip daily for 6 days
Description: The multi-day safety study used female, 10 week old, CD1 mice (4/treatment group) dosed with DMSO. Mice were administered 2 mg/kg of Structure 2 or 10 mg/kg Structure 3, ip, daily for 6 days and evaluated for changes clinical chemistry values, hematology values and animal weight as well as signs of health and grooming habits.
Heparinized blood samples were obtained by retro-orbital puncture on Day 6, 12 hours after the last dose of Structure 2. The plasma harvested from the blood was analyzed for standard clinical chemistry parameters (ALB. ALP, ALT, AMY, TBIL, BUN, CA, PHOS, CRE GLU, NA, K, TP & GLOB) and hematology (WBC, LYM, MON, GRA, RBC, HGB, HCT, MCV, MCH, MCHC, RDWc, PLT, PCT, MPV, PDWc) analytes (see definitions herein). Animal weight changes were also monitored. Values for all analytes were analyzed by one way ANOVA plus post-hoc Bonferroni using SPSS (IBM, Armonk, NY).

## Cc1nc(-c2ccc(CNC(=O)c3cc(CC(C)C)nn3C)cc2)no1 [Structure 2, 3-isobutyl-1-methyl-N-(4-(5-methyl-1,2,4-oxadiazol-3-yl)benzyl)-1H-pyrazole-5-carboxamide]
[1]
  IC50: 232 nM
[2]
  IC50: 351 nM
[3]
  not cytotoxic at concentrations up to: > 40 µM
[4]
  phosphorylated ERK (T202/Y204): dramatically decrease phosphorylated ERK
[5]; CD-1, mouse, plasma, plasma, read-out: Vz/F
  Vd/F: 0.532 L/kg
[5]
  mean resident times (MRT): approximately one to two
[5]; plasma
  AUCINF: 10.92 (Microgram * Hour)/mL
  AUC_%Extrap: 1.92%
  AUClast: 10.71 (Microgram * Hour)/mL
  CI/F: 4.58 mL/min/kg
  Concentrationmax: 5.74 Microgram/mL
  Lambda_z: 0.53 h⁻¹
  MRTINF: 2.15 h
  MRTlast: 2.00 h
  Timelast: 8.00 h
[5]; mouse, plasma, read-out: Concentrationlast
  concentration at 8 Hour: 110 ng/mL
[6]
  body weight or grooming habits versus dosing vehicle treated animals: no statistically significant difference
  clinical chemistry changes versus dosing vehicle treated animals: no significant clinical chemistry changes
[6]; Day 6
  ALB: 3.88 ± 0.30 g/dL
  ALP: 66.50 ± 8.80 U/L
  ALT: 59.00 ± 32.50 U/L
  AMY: 871.50 ± 74.70 U/L
  BUN: 18.25 ± 4.10 mg/dL
  CRE: 0.34 ± 0.10 mg/dL
  Ca^++: 9.43 ± 0.40 mg/dL
  GLOB: 1.23 ± 0.10 g/dL
  GLU: 234.25 ± 31.70 mg/dL
  GRA: 1.23 ± 0.20 10^9/l
  GRA (%): 19.03 ± 3.70%
  HCT: 44.34 ± 4.60%
  HGB: 15.23 ± 1.70 g/dL
  K^+: 5.35 ± 0.40 mmol/L
  LYM: 5.17 ± 1.80 10^9/l
  LYM (%): 76.18 ± 3.50%
  MCH: 16.15 ± 0.40 pg
  MCHC: 34.35 ± 1.30 g/dL
  MCV: 47.00 ± 2.40 fL
  MON: 0.33 ± 0.10 10^9/l
  MON (%): 4.85 ± 0.40%
  MPV: 7.10 ± 0.60 fL
  NA^+: 147.00 ± 0.80 mmol/L
  PCT: 0.31 ± 0.10%
  PDWc: 33.08 ± 3.40%
  PHOS: 8.13 ± 1.00 mg/dL
  PLT: 448.50 ± 193.10 10^9/l
  RBC: 9.44 ± 1.00 10^12/l
  RDWc: 17.40 ± 0.40%
  TBIL: 0.43 ± 0.00 mg/dL
  TP: 5.08 ± 0.20 g/dL
  WBC: 6.72 ± 2.00 10^9/l
